ChEMBL document CHEMBL4354874, “Insights into PPARγ Phosphorylation and Its Inhibition Mechanism” (J Med Chem, 2020)
Active and inactive are the calls of the source. The calls are words filed in the database; no cut-off is given here.

Biological target: Cyclin-dependent kinase 5 (Homo sapiens) (UniProt Q00535)
Test: Inhibition of CDK5 (unknown origin) assessed as reduction in histone H1 phosphorylation

Sequence of Cyclin-dependent kinase 5 (Homo sapiens) (Q00535 whole entry, looked up): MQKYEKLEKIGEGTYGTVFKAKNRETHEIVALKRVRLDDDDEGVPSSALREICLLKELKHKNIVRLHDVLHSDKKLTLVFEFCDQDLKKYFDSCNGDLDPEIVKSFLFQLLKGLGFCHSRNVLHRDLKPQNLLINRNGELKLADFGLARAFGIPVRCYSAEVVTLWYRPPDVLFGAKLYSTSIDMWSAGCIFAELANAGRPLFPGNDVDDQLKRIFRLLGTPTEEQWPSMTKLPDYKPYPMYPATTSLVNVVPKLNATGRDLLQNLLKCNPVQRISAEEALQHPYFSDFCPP

inhibition: inactive
Compound: O=C(O)[C@H](Cc1ccccc1)Oc1ccc(-c2ccccc2)cc1
